Reference: US20230172825A1, “COMPOSITION FOR IMPROVING SKIN COMPRISING AMINO ACID COMPLEX AS ACTIVE INGREDIENT” (NATURE IN LAB. INC., priority 2021, published 2023)

Experiments:
Type in all cases: cell-based, human
MMP-1 = assay: Inhibition of MMP-1 gene expression in UVA-damaged cells (real-time PCR); conditions: UVA-irradiated CCD-1064Sk, 24 hours, concentration 1 µg/mℓ; UVA alone 100.0, control group 50.5
Procedure: Human dermal fibroblasts (CCD-1064Sk, ATCC® CRL-2076™) were inoculated into a 60-mm dish using IMDM (Welgene, Korea) and cultured for 24 hours, followed by UVA irradiation. Afterwards, the medium was replaced with fresh serum-free IMDM, and samples were each treated at different concentrations and cultured for 24 hours at 37° C. in a 5 % CO2 incubator. After removal of the medium, the cells were collected by using QIAzol™ Lysis Reagent (Qiagen), and RNA thereof was isolated according to the protocol of the manufacturer. After quantifying the isolated RNA, cDNA was synthesized with 1 µg of RNA, followed by Real-time PCR (Applied Biosystems, 7500 FAST Real-Time PCR System).

collagen type III = assay: Gene expression of collagen type III (real-time PCR); conditions: CCD-1064Sk, 24 hours, concentration 100 µg/mℓ; control group 100.0
Procedure: Human dermal fibroblasts (CCD-1064Sk, ATCC® CRL-2076™) were inoculated into a 60 mm dish using IMDM (Welgene, Korea), cultured for 24 hours, and then replaced with fresh serum-free IMDM. […] After removal of the medium, the cells were collected by using QIAzol™ Lysis Reagent (Qiagen), and RNA thereof was isolated according to the protocol of the manufacturer. After quantifying the isolated RNA, cDNA was synthesized with 1 µg of RNA, followed by Real-time PCR (Applied Biosystems, 7500 FAST Real-Time PCR System).

collagen type I = assay: Gene expression of collagen type I (real-time PCR); conditions: CCD-1064Sk, 24 hours, concentration 100 µg/mℓ; control group 100.0
Procedure: After removal of the medium, the cells were collected by using QIAzol™ Lysis Reagent (Qiagen), and RNA thereof was isolated according to the protocol of the manufacturer. After quantifying the isolated RNA, cDNA was synthesized with 1 µg of RNA, followed by Real-time PCR (Applied Biosystems, 7500 FAST Real-Time PCR System).

SMILES	Mean (gene expression of MMP-1) (MMP-1)	Mean (gene expression of collagen type III) (collagen type III)	Mean (gene expression of collagen type I) (collagen type I)
O=C(O[C@@H]1Cc2c(O)cc(O)cc2O[C@@H]1c1cc(O)c(O)c(O)c1)c1cc(O)c(O)c(O)c1 [EGCG]	56.7	–	–
O=C1O[C@H]([C@@H](O)CO)C(O)=C1O [Vitamin C, vitamin C]	–	135.6	134.2
